Experimental data taken from patent US6369294B1, “Methods comprising apoptosis inhibitors for the generation of transgenic pigs” (Texas A&M University System, priority 1996, dated 2002).
“And” between values parts separate entries of the source, which are not always exact repeats. Equal values may be shown once.

How the values were obtained:
[1] = system: porcine primordial germ cells; assay: Isolation of porcine primordial germ cells with bFGF; format: cell-based
Description: (§1) STO feeder cells were plated in PES media alone for 48 hours or in PES media containing 40 ng/ml bFGF for the same period of time. […] It is not presently known whether bFGF is acting directly on the proliferation rate of the PGCs or whether the effect is through a change in the physiology of the STO cells which then effects the PGCs.
Thirdly, when low density feeders are used to culture porcine PGCs, very few colonies grow and the few that do grow are always in direct contact with the feeder cells. No colonies grow on the plastic, even if surrounded by STO cells. Thus it is unlikely that the STO's are producing a soluble factor. Additionally, to isolate porcine PGC-derived cells, it is an absolute requirement that bFGF be added to the feeders. The bFGF drastically changes the morphology of the feeder cells. Thus the bFGF may be acting on the feeder to promote/inhibit production of a matrix component versus acting directly on the PGC cells. Also, very few colonies are obtained when plating porcine PGCs on feeders made within 6 hours. However, feeders made 24 hours prior to plating yield much better results. Thus this period of time may be required for synthesis and secretion of some matrix component.

[2] = system: STO feeder cells; assay: STO feeder cells plated with or without bFGF, morphology; format: cell-based, mouse; settings: PES media containing 40 ng/ml bFGF for 48 hours
Description: as §1

[3] = system: porcine ICM (pICM); assay: In vitro differentiation assay of cultured porcine inner cell mass, graded 1 to 5; format: cell-based; settings: for differentiation score on day two, study 2: scale 1 (fully undifferentiated) to 5 (fully differentiated), p<0.05
Text: The inventors have developed a grading system to detect changes in the differentiation status of in vitro cultured PGC cells or the pICM. In the first study porcine ICMs (day 7) were isolated by immunosurgery and cultured 4 days in DMEM-based medium (D medium) or DMEM/Hams F-10 (1:1)-based medium (D/H medium) with or without human leukemia inhibitory factor (hLIF; 1000 μ/ml). For the second study pICMs were collected as above and cultured 4 days in one of six treatments: control medium, human leukemia inhibitory factor (hLIF; 1000 μ/ml), human interleukin-6 (hIL-6; 100 ng/ml), hIL-6+hIL-6 soluble receptor (hIL6+sR; 100 ng/ml+2.5 μg/ml), human oncostatin M (hOSM; 100 ng/ml), or rat ciliary neurotrophic factor (rCNTF; 100 ng/ml). All cytokines were prepared in Dulbecco's Modified Eagles Medium/Hams F-10 (1:1)-based medium. The colonies were photographed daily for morphological analysis.
pICMs were categorized into one of two types based on their morphological profile: type A, non-epithelial or type B, epithelial-like. The pICM differentiation was evaluated using standardized differentiation profiles. Each pICM series was graded on a scale of 1 (fully undifferentiated) to 5 (fully differentiated) for each time point. Differentiation was verified by alkaline phosphatase activity, cytokeratin staining, and scanning electron microscopy. […] Furthermore, addition of rCNTF gave the lowest overall mean differentiation score (2.53±0.15). […] The grading system employed was thus an effective tool for detecting treatment effects on differentiation of the developing pICM.

[4] = system: PGCs; assay: Effect of isolation procedure and α2-macroglobulin on PGCs developing into alkaline phosphatase positive colonies; format: cell-based, pig; settings: α2-macroglobulin 1 μg/ml; for alkaline phosphatase positive colonies (replicates R1-R3): counted six days later
Description: Genital ridges from two day 25-27 pig fetuses were collected, divided into four groups (a 2×2 study), placed in PES media either with α2-macroglobulin at 1 μg/ml (2 groups) or without α2-macroglobulin (2 groups), and immediately either needle teased to allow colonies to seep out (2 groups) or macerated (2 groups) with the help of a syringe. Briefly, the ridges were broken into small pieces by pressing them against the bottom of a dish with the back of a syringe. The disrupted tissues were further broken up by passing them several times through a 20 gauge needle until all large tissue clumps had been disrupted. Following tissue disruption, samples were centrifuged for 3-5 minutes at 250×g to settle tissue fragments and supernatant containing mostly single cells collected and centrifuged at 1000×g for 5 min. The resulting pellet was resuspended in PES containing LIF, SCF, and bFGF with or without human α2-macroglobulin, cells counted, and plated in triplicate in feeder layers.
Six days later colonies were fixed, stained for alkaline phosphatase activity, and counted.

[5] = system: cultured PGCs; assay: Passage of cultured PGCs in presence or absence of α2-macroglobulin, alkaline phosphatase positive colonies; format: cell-based
Text: The effect of α2-macroglobulin on the ability to passage cells was also studied. To test the ability of α2-macroglobulin to protect against the losses normally observed when cultured PGCs are trypsinized, cells were passaged twice in the presence or absence of α2-macroglobulin, the colonies fixed, stained for alkaline phosphatase and the number of alkaline phosphatase positive colonies determined. PGCs were collected in PES and plated on feeder layers in the presence or absence of media containing 1 μg/ml α2-macroglobulin. Colonies were allowed to grow for 7 days, trypsinized as described above and plated again in media with or without α2-macroglobulin. Samples were done in duplicate and corrected for the number of added cells.

[6] = system: bovine PGC's; assay: Third passage bovine PGC colonies with or without α2-macroglobulin (preliminary study); format: cell-based
Text: The ability of colonies cultured and passaged in the presence or absence of α2-macroglobulin to survive in an undifferentiated state for multiple passages is currently being studied. In a preliminary study twice as many colonies were obtained from third passage bovine PGC's (22 versus 45) cultured in media with α2-macroglobulin than in media without the protease inhibitor. Moreover, the colonies appear on average 2-3 days earlier and are of larger size when cultured in the presence of α2-macroglobulin.

[7] = system: PGC; assay: Optimal concentration of α2-macroglobulin: ratio of AP positive colonies to control samples; format: cell-based; settings: for ratio of AP positive colonies compared to control samples: three trials
Description: An additional study was performed to determine the optimal concentration of α2-macroglobulin. The ratio of AP positive colonies in samples containing either 1 μg/ml or 0.5 μg/ml as compared to control samples was determined for three trials. The ratios at 1 μg/ml were 0.81±0.37, 0.84±0.23 and 0.83±0.27, while at 0.5 μg/ml they were 1.98±0.36, 1.43±0.27 and 1.70±0.41.

[8] = system: PGC; assay: Addition of uteroferrin or uteroferrin rose to PGC culture media; format: cell-based
Description: The pellet, containing PGCs, was resuspended in PES media Following collection, the cells were rinsed 3 times by centrifugation and resuspended in PEG medium containing soluble recombinant human stem cells factor at 30 ng/ml, human basic fibroblast growth factor at 40 ng/ml, and LIF at 20 ng/ml and plated onto STO feeder layers. Additionally, the effect of the addition of 100 ng/ml of uteroferrin in the presence or absence of stem cell factor on the number of alkaline phosphatase positive colonies was determined.
In order to determine the beneficial effect provided by the serpin alone, a broad range protease inhibitor called α2-macroglobulin was studied (Feige et al., 1996).

[9] = rCNTF 100 ng/ml, hLIF 1000 μ/ml

bFGF: basic fibroblast growth factor was tested, and the “requirement for the isolation of porcine primordial germ cells” value [1] was “essential component for the isolation of porcine primordial germ cells” and the “change in morphology of the feeder cells” value [2] was “drastic change is seen in the morphology of the feeder cells”.

hLIF: human leukemia inhibitory factor was tested, and the “delay of differentiation of the developing pICM, study 1” value ([3]; hLIF 1000 μ/ml, D or D/H medium, 4 days, p=0.08) was “neither hLIF nor culture medium delayed differentiation” and the “differentiation score on day two, study 2” value [3, 9] was 2.70±0.16.

In the case of “α2-macroglobulin: broad range protease inhibitor; apoptosis inhibitor added to PGC culture media at 1 μg/ml”, the Normalized value ([4]; pig 1, macerate) is reported as 16395 colonies per million cells, the “alkaline phosphatase positive colonies (replicates R1-R3)” value (“alkaline phosphatase positive colonies” below) ([4]; pig 1, macerate) is reported as 4712 and 5176 and 4368 and the Normalized value ([4]; pig 1, teasing) is reported as 18087 colonies per million cells. The “alkaline phosphatase positive colonies” value ([4]; pig 1, teasing) was 4688 and 4960 and 5424, the Normalized value ([4]; pig 2, macerate) was 35865 colonies per million cells and the “alkaline phosphatase positive colonies” value ([4]; pig 2, macerate) was 8312 and 7872 and 8896. For the same molecule, the Normalized value ([4]; pig 2, teasing) was 37380 colonies per million cells, the “alkaline phosphatase positive colonies” value ([4]; pig 2, teasing) was 6200 and 6008 and 6864 and the “Normalized value” ([5]; 1st passage +, 2nd passage +) was 2052 colonies per 1000 colonies plated. The “Normalized value” ([5]; 1st passage +, 2nd passage −) was 1512 colonies per 1000 colonies plated, the “Normalized value” ([5]; 1st passage −, 2nd passage +) was 1422 colonies per 1000 colonies plated and the “Normalized value” ([5]; first passage, media with 1 μg/ml α2-macroglobulin) was 22028 colonies per million cells. For the same molecule, the “number of colonies from third passage bovine PGC's” value ([6]; media with α2-macroglobulin, 22 without) was 45, the “colonies appear earlier than without α2-macroglobulin” value ([6]; on average) was 2 to 3 days and the “factor by which the lower dose is more effective in generating AP positive colonies” value ([7]; 0.5 μg/ml versus 1 μg/ml) was ~2. The “ratio of AP positive colonies compared to control samples” value ([7]; α2-macroglobulin 0.5 μg/ml) was 1.98±0.36 and 1.43±0.27 and 1.70±0.41 and the “ratio of AP positive colonies compared to control samples” value ([7]; α2-macroglobulin 1 μg/ml) was 0.81±0.37 and 0.84±0.23 and 0.83±0.27.

B1: rCNTF: rat ciliary neurotrophic factor (protein, UniProt P20294 1-200, looked up)
Ciliary neurotrophic factor: MAFAEQTPLTLHRRDLCSRSIWLARKIRSDLTALMESYVKHQGLNKNINLDSVDGVPVASTDRWSEMTEAERLQENLQAYRTFQGMLTKLLEDQRVHFTPTEGDFHQAIHTLMLQVSAFAYQLEELMVLLEQKIPENEADGMPATVGDGGLFEKKLWGLKVLQELSQWTVRSIHDLRVISSHQMGISALESHYGAKDKQM
B1 was tested, and the “differentiation score on day two, study 2” value [3, 9] was 2.07±0.15 and the “overall mean differentiation score, study 2” value ([3]; scale 1 to 5, 4 day culture, rCNTF 100 ng/ml) was 2.53±0.15.

B2: uteroferrin: purple colored, progesterone-induced iron-containing glycoprotein secreted by uterine endometrial epithelium of pigs (protein, UniProt P09889 21-340, looked up)
Tartrate-resistant acid …: GTRTNTRTAPTPILRFVAVGDWGGVPNAPFHTAREMANAKAIATTVKTLGADFILSLGDNFYFTGVHDAKDKRFQETFEDVFSDPSLRNVPWHVLAGNHDHLGNVSAQIAYSKISKRWNFPSPYYRLRFKIPRSNVSVAIFMLDTVTLCGNSDDFVSQQPERPRNLALARTQLAWIKKQLAAAKEDYVLVAGHYPVWSIAEHGPTHCLVKQLLPLLTTHKVTAYLCGHDHNLQYLQDENGLGFVLSGAGNFMDPSKKHLRKVPNGYLRFHFGAENSLGGFAYVEITPKEMSVTYIEASGKSLFKTKLPRRARSEHQHRRA
For B2, the “effect on the number of resulting PGC colonies” value [8] was “some improvement”.
